Source: US11634594B2, “Antimicrobial agent for coatings and finishes” (SWIMC LLC, priority 2016, dated 2023)

Tested on: challenge pool of 7 bacteria: P. aeruginosa, E. aerogenes, E. coli, K. pneumonia, S. aureus, B. subtilis and S. enterica
Experiment: ASTM D 2574 (modified) on pigment dispersions, split samples aged at room temperature / 3 weeks 60° C. / 6 weeks 60° C.
Type: cell-based
Description: ASTM D 2574: Standard Test for Resistance of Emulsion Paints in the Container to Attack by Microorganisms.
The test is conducted in accordance with the ASTM standard, except for the following modifications noted for the preparation of the inoculum and test procedure.
Preparation of Inoculum: There are 7 bacteria used in forming the challenge pool, they include: P. aeruginosa (ATCC #10145), E. aerogenes (ATCC #13048), E. coli (ATCC #10536), K. pneumonia (ATCC #10031), S. aureus (ATCC #6538), B. subtilis (ATCC #6051) and S. enterica (ATCC #13312). Bacterial cultures are prepared 24 hours before the test is scheduled to start by selecting one colony from a plate with a […], inoculating loop, adding it to 10 mL of sterile tryptic soy broth tubes and placing it on the shaking incubator. A 1 mL of each of the seven organisms is combined into a pool in a conical tube. A 1 mL of the created pool is then added to a 9 mL of sterile tryptic soy broth in a conical tube to get an inoculum concentration of ˜10^8 CFU/mL.
Test Procedure: A 1:100 dilution of the inoculum is added into each sample (ex. […], into 40 mL of sample) which provides a ˜10^6 CFU/mL challenge. The samples are then placed into 35° C. incubator for 24 hours to grow new organisms before each inoculation. The samples are inoculated on Days: 0, 2, 7 and 14. The samples are put back into incubator after each inoculation. […]

bismuth aluminate
effectiveness compared with isothiazolone antimicrobial agent (Table 4): at least as effective as the isothiazolone antimicrobial agent | preventing microbial growth (initial results): effective in preventing microbial growth
